{"source": "PubChem BioAssay AID1259411", "about": "(Chemical Carcinogenesis Research Information System (CCRIS), 2018)", "system": "rodent carcinogenicity bioassays, tumor incidence", "test": "CCRIS carcinogenicity studies", "details": "Dose: 0, Dose: 0", "summary_of_the_method": "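NCI-built, expert-reviewed records of carcinogenicity and related test outcomes (mutagenicity, tumor promotion/inhibition) compiled from published and report sources, historical span 1985-2011, not updated.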", "note": "Calls of active or inactive are those of the source. The rule behind the calls is not given here."}
{"smiles": "Nc1ccc(N)c([N+](=O)[O-])c1", "values": [{"measurement": "carcinogen call", "setting": "Species: MOUSE, Strain/Sex: B6C3F1/FEMALE, Route: ORAL, 2200, 4400 PPM IN DIET, 2200, 4400 PPM IN DIET, Tumor Site: Type of Lesion: LIVER: HEPATOCELLULAR ADENOMA OR CARCINOMA", "value": "active; positive"}, {"measurement": "carcinogen call", "setting": "Species: MOUSE, Strain/Sex: B6C3F1/MALE, Route: ORAL, 2200, 4400 PPM IN DIET, 2200, 4400 PPM IN DIET", "value": "inactive; negative"}, {"measurement": "carcinogen call", "setting": "Species: RAT, Strain/Sex: F344/FEMALE, Route: ORAL, 1100, 2200 PPM IN DIET, 1100, 2200 PPM IN DIET", "value": "inactive; negative"}, {"measurement": "carcinogen call", "setting": "Species: RAT, Strain/Sex: F344/MALE, Route: ORAL, 550, 1100 PPM IN DIET, 550, 1100 PPM IN DIET", "value": "inactive; negative"}]}
{"smiles": "CNC(=O)N(C)N=O", "values": [{"measurement": "carcinogen call", "setting": "Species: RAT, Strain/Sex: F344/FEMALE, Route: GAVAGE, 20, 40 UMOL/WK IN CORN OIL/ETHYL ACETATE (2: 1) FOR 30 WK FOR TOTAL DOSES OF 0, 0.6, 1.2 MMOL (STUDY DURATION: LIFETI, 20, 40 UMOL/WK IN CORN OIL/ETHYL ACETATE (2: 1) FOR 30 WK FOR TOTAL DOSES OF 0, 0.6, 1.2 MMOL (STUDY DURATION: LIFETI, Tumor Site: Type of Lesion: NERVOUS SYSTEM: TUMOR", "value": "active; positive"}, {"measurement": "carcinogen call", "setting": "Species: RAT, Strain/Sex: F344/FEMALE, Route: INTRAVESICULAR, 2.4 MG 2/WK FOR 30 WK (STUDY DURATION: LIFETIME), Tumor Site: Type of Lesion: BRAIN: TUMOR, KIDNEY: TUMOR", "value": "active; positive"}, {"measurement": "carcinogen call", "setting": "Species: RAT, Strain/Sex: F344/FEMALE, Route: ORAL, 20, 40 UMOL/WK IN DRINKING WATER FOR 30 WK FOR TOTAL DOSES OF 0, 0.6, 1.2 MMOL (STUDY DURATION: LIFETIME), 20, 40 UMOL/WK IN DRINKING WATER FOR 30 WK FOR TOTAL DOSES OF 0, 0.6, 1.2 MMOL (STUDY DURATION: LIFETIME), Tumor Site: Type of Lesion: UTERUS: TUMOR, THYROID: FOLLICULAR CELL TUMOR, NERVOUS SYSTEM: TUMOR, Tumor Site: Type of Lesion: UTERUS: TUMOR, THYROID: FOLLICULAR CELL TUMOR, NERVOUS SYSTEM: TUMOR", "value": "active; positive"}, {"measurement": "carcinogen call", "setting": "Species: RAT, Strain/Sex: F344/MALE, Route: GAVAGE, 20, 40 UMOL/WK IN CORN OIL/ETHYL ACETATE (2: 1) FOR 30 WK FOR TOTAL DOSES OF 0, 0.6, 1.2 MMOL (STUDY DURATION: LIFETI, 20, 40 UMOL/WK IN CORN OIL/ETHYL ACETATE (2: 1) FOR 30 WK FOR TOTAL DOSES OF 0, 0.6, 1.2 MMOL (STUDY DURATION: LIFETI, Tumor Site: Type of Lesion: NERVOUS SYSTEM: TUMOR, TESTIS: MESOTHELIOMA", "value": "active; positive"}, {"measurement": "carcinogen call", "setting": "Species: RAT, Strain/Sex: F344/MALE, Route: ORAL, 20, 40 UMOL/WK IN DRINKING WATER FOR 30 WK FOR TOTAL DOSES OF 0, 0.6, 1.2 MMOL (STUDY DURATION: LIFETIME), 20, 40 UMOL/WK IN DRINKING WATER FOR 30 WK FOR TOTAL DOSES OF 0, 0.6, 1.2 MMOL (STUDY DURATION: LIFETIME), Tumor Site: Type of Lesion: TESTIS: MESOTHELIOMA, NERVOUS SYSTEM: TUMOR", "value": "active; positive"}]}
{"smiles": "O[C@H]1CCc2c(ccc3cc4ccc5ccccc5c4nc23)[C@@H]1O", "values": [{"measurement": "carcinogen call", "setting": "Species: MOUSE, Strain/Sex: CD-1/FEMALE, Route: INTRAPERITONEAL, 175 NMOL (TOTAL DOSE) ADMINISTERED AS 1/7 OF DOSE WITHIN 24 HR AFTER BIRTH, 2/7 OF DOSE AT 8 D OLD, 4/7 OF DOSE AT 15", "value": "inactive; negative"}, {"measurement": "carcinogen call", "setting": "Species: MOUSE, Strain/Sex: CD-1/MALE, Route: INTRAPERITONEAL, 175 NMOL (TOTAL DOSE) ADMINISTERED AS 1/7 OF DOSE WITHIN 24 HR AFTER BIRTH, 2/7 OF DOSE AT 8 D OLD, 4/7 OF DOSE AT 15", "value": "inactive; negative"}]}
{"smiles": "CCC1(c2ccccc2)C(=O)NC(=O)NC1=O", "values": [{"measurement": "carcinogen call", "setting": "Species: MOUSE, Strain/Sex: 6HF1/MALE, Route: ORAL, 0.05% IN BASAL DIET FOR 104 WK (STUDY DURATION: 104 WK), Tumor Site: Type of Lesion: LIVER: TUMOR", "value": "active; positive"}]}
{"smiles": "CC1(C)[C@H](C(=O)O[C@H](C#N)c2cccc(Oc3ccccc3)c2)[C@@H]1C(Br)C(Br)(Br)Br", "note": "(some centres not stated)", "values": [{"measurement": "carcinogen call", "setting": "Species: Mouse, Strain/Sex: Not reported by DPR/Female (60-80/Group), Route: Gavage, 0.75, 3.0, 10.0 mg/kg/day in corn oil for 104 wk, 0.75, 3.0, 10.0 mg/kg/day in corn oil for 104 wk", "value": "inactive; negative"}, {"measurement": "carcinogen call", "setting": "Species: Mouse, Strain/Sex: Not reported by DPR/Male (60-80/Group), Route: Gavage, 0.75, 3.0, 10.0 mg/kg/day in corn oil for 104 wk, 0.75, 3.0, 10.0 mg/kg/day in corn oil for 104 wk", "value": "inactive; negative"}, {"measurement": "carcinogen call", "setting": "Species: Rat, Strain/Sex: Not reported by DPR/Female (60-80/Group), Route: Gavage, 0.75, 3.0, 12.0 mg/kg/day in corn oil for 104 wk, 0.75, 3.0, 12.0 mg/kg/day in corn oil for 104 wk", "value": "inactive; negative"}, {"measurement": "carcinogen call", "setting": "Species: Rat, Strain/Sex: Not reported by DPR/Male (60-80/Group), Route: Gavage, 0.75, 3.0, 12.0 mg/kg/day in corn oil for 104 wk, 0.75, 3.0, 12.0 mg/kg/day in corn oil for 104 wk", "value": "inactive; negative"}]}
{"smiles": "O=P(O)(O)O", "values": [{"measurement": "carcinogen call", "setting": "Species: MOUSE, Strain/Sex: B6C3F1/FEMALE, Route: GAVAGE, 500, 1000 MG/KG IN DEIONIZED WATER 5D/WK FOR 103 WK (STUDY DURATION: 105 WK), 500, 1000 MG/KG IN DEIONIZED WATER 5D/WK FOR 103 WK (STUDY DURATION: 105 WK)", "value": "inactive; negative"}, {"measurement": "carcinogen call", "setting": "Species: MOUSE, Strain/Sex: B6C3F1/MALE, Route: GAVAGE, 500, 1000 MG/KG IN DEIONIZED WATER 5D/WK FOR 103 WK (STUDY DURATION: 105 WK), 500, 1000 MG/KG IN DEIONIZED WATER 5D/WK FOR 103 WK (STUDY DURATION: 105 WK)", "value": "inactive; negative"}]}
{"smiles": "COc1ccc(N)c(OC)c1", "values": [{"measurement": "carcinogen call", "setting": "Species: MOUSE, Strain/Sex: B6C3F1/FEMALE, Route: ORAL, 2500, 5000 PPM IN DIET, 2500, 5000 PPM IN DIET", "value": "inactive; negative"}, {"measurement": "carcinogen call", "setting": "Species: MOUSE, Strain/Sex: B6C3F1/MALE, Route: ORAL, 2500, 5000 PPM IN DIET, 2500, 5000 PPM IN DIET", "value": "inactive; negative"}, {"measurement": "carcinogen call", "setting": "Species: RAT, Strain/Sex: F344/FEMALE, Route: ORAL, 1500, 3000 PPM IN DIET, 1500, 3000 PPM IN DIET", "value": "inactive; negative"}, {"measurement": "carcinogen call", "setting": "Species: RAT, Strain/Sex: F344/MALE, Route: ORAL, 1500, 3000 PPM IN DIET, 1500, 3000 PPM IN DIET", "value": "inactive; negative"}]}
